This is an account of results in patent publication US5132291A, “Antivirals and methods for increasing the antiviral activity of AZT” (priority 1989, dated 1992).

The structures appear in SMILES notation. Where two headings read alike, the source gives them in different places.

One data set concerns HIV-1. The data set can be described thus: HIV syncitial forming assay using CEM-SS cells. Type of data set: cell-based. The source says:
The following cytomorphologic infectivity bioassay was used to characterize antiviral activity against HIV-1. In the following assay a single infectious unit of virus infects a single cell and initiates a focal expression of that infection, i.e., a syncitium. Since a single infectious unit leads to a discrete response, a linear relationship exists between the number of virally-induced cytopathic effects and the first order of virus concentration. Application of this procedure in assays for virus inactivation allows for evaluation of the candidate antiviral agent.
CEM-SS (syncitium-sensitive Leu 3a-positive CEM cell line) cells were grown in RPMI 1640 cell culture media (Irvine Scientific) supplemented with 10% heat-inactivated fetal bovine serum (Gemini Bioproducts) and 1% […] glutamine (Gibco). Log-phase cells were split 1:2 with the growth medium the day prior to setting up the assay to standardize plating conditions and to assure a population of logarithmically growing cells. Ninety-six-well plates (Costar) were pretreated with 50 μl of 50 μg/ml poly-1-lysine (MW=295,000 Sigma) "PLL") and were left at room temperature for 60 minutes. Residual PLL was removed with two washes of PBS. The plates were stored in the incubator until used.
On the day of the assay, the cells were counted and enough cells were harvested to plate each well with 5.0×10^4 cells per well in a volume of 200 μl (or 20 ml of […] was appropriate for each 96-well microtitre plate).
The cells were plated out on the PLL pre-treated microtitre plates at 5.0×10^4 cells/well in a volume of 200 μl. After allowing attachment for 30 minutes at 37° C. and 5% CO2, the antiviral agent(s) were added in the noted amounts and the treated plates were pre-incubated for 24 hours.
The HIV-1 virus stock (isolated from infected H-9 cells) was diluted in growth medium to yield 100 SFU (syncytial-forming units) per well. Diluted HIV-1 virus, 20 μl, was added to appropriate wells. All the plates were then incubated for 5 days at 37° C. and 5% CO2. On day 5 post-infection, the cells were given a 100 μl media change. […]

Data set [1] in a line: Lymphoblast assay, effects on cell growth, CEM T-cell line. Format: cell-based. The following applies: human, cem cells, AICA riboside alone, read-out: reduction in T-cell growth. As for the experimental part: (§1) Several lymphoblast lines were utilized in conjunction with varying doses of antiviral agents to determine their effects on cell growth. In this method a daily cell count over a period of time, post-addition of antiviral compounds, can be compared with the normal cell growth curve.
(§2) Two representative T-cell lines, SupT-1 and CEM, and a B-cell line, WI-L2, were grown to mid-log phase 5×10^5 cells/ml in 50 ml of RPMI 1640 (Irvine Scientific) supplemented with 10% heat-inactivated fetal calf serum (Gemini-Bioproducts) and 1% glutamine (Gibco) to standardize seeding conditions and to assure a population of logarithmically growing cells.
(§3) An appropriate number cf T-25 flasks (Corning) were seeded with evenly suspended cells at 0.5×10^5 cells/ml in 20 ml of fresh growth media. Including a control condition, each set of flasks was treated with a dose range of antiviral compound for each cell line. Each dose condition was repeated in triplicate. All flasks were incubated for 5 days at 37° C. in a 5% CO2 incubator.
(§4) Every 24 hours for 5 days, three 0.2 ml samples of each flask were diluted in 9.8 ml of isoton (Fisher Scientific) and counted on a cell counter (Coulter Co.). The average of each flask was recorded, and the average of each triplicate antiviral does was then averaged and recorded.

The nature of data set [2]: Lymphoblast assay, effects on cell growth, SupT-1 T-cell line. Format: cell-based. Particulars: human, supt-1 cells, AICA riboside alone, SUP T-1, read-out: reduction in T-cell growth. On the procedure: as §1, §2, §3, §4
For another data set, the system named is SAH hydrolase. The data set can be described thus: SAH hydrolase inhibition. Format: biochemical. As for the experimental part: The effect of incubation time and AICA riboside concentration on SAH hydrolase activity was determined as follows. Five samples of SAH hydrolase were incubated at the following AICA riboside concentrations: 0, 10, 25, 50 and 100 μM. The incubation buffer consisted of 25 mM potassium phosphate pH 7.0, 1 mM EDTA, 1 mM, DTT and 0.04% BSA. The total enzyme added to incubation mixture was 10 μg. At indicated times, 10 μl of sample was withdrawn and assayed in the following assay system: 25 mM potassium phosphate, pH 7.0, 40 mM DL-Homocysteine, 1 mM EDTA, 1 mM DTT, 10 μM EHNA, 0.1% BSA and 10 μM U-^14 C Adenosine (590 m Ci/mmole). The reaction was stopped by adding 15 μl of 30% TCA. The samples were then centrifuged and 15 μl were removed and applied to Kodak cellulose 13254 TLC plates along with SAH and adenosine markers. The plates were then developed in a solvent system of 1-butanol:methanol:H2 O:ammonium hydroxide (60:20:20:2). The adenosine and S-adenosyl homocysteine were visualized under UV light and the spots were cut from the plate. Radioactivity of the spots was determined by liquid scintillation spectrometry. From a plot of the reciprocal of Kinactivation vs. 1/AICA riboside concentration the values of Ki (X-intercept) and Kmax (Y-intercept), were determined (FIG. 10(b)).

With `NC(=O)c1ncn([C@@H]2O[C@H](CO)[C@@H](O)[C@H]2O)c1N` [AICA riboside, 5-amino-1-β-D-ribofuranosyl-imidazole-4-carboxamide], in the data set with HIV-1 (AICA riboside 5 μM and 50 μM, 24 hour preincubation before HIV infection), the “antiviral effect (number of syncitia)” value was “antiviral effect”. Moreover, the “antiviral effect with preincubation versus addition at the time of infection” value in the data set on HIV-1 (CEM cells, HIV) is listed as “more effective as an antiviral with preincubation”. Also, the inhibition at 500 µM in data set [1] and in data set [2] was 30 to 50% in each case. Further, the “inhibition of SAH hydrolase” value is reported as “very potent inhibitors” in the data set with SAH hydrolase and “potent inhibitors” in the data set with SAH hydrolase (even at a concentration as low as 10 μM).
